# Measured values: patent publication US5438073A, “Dermatological and/or cosmetological composition containing retinoids” (Pierre Fabre Cosmetique, priority 1991, dated 1995)
# Where two headings read alike, the source gives them in different places.
# Tests used:
# [1] = system: cytosol extracts of human keratinocytes; conditions: human epidermal cells; specific inhibitors of alcohol metabolism or excess of ethanol
# Description: We have measured the conversion of retinol to retinoic acid. We have also measured the enzymatic oxidation-reduction of retinal in human epidermal cell extracts in vitro (HPLC analysis of the products obtained by incubation of cytosol extracts with ^3 H-labeled RAL and ROL).
# (§1) The HPLC analyses of the retinoids are carried out by the following technique:
# (§2) A 100 μl aliquot of the cytosol fraction of keratinocytes is incubated with 600 μM (^3 H) retinol or (^3 H) retinal for 1 hour.
# (§3) 5 μl of internal standard solution containing 4-oxoretinoic acid, all-trans-retinoic acid, 13-cis-retinoic acid, retinol and retinal are subsequently added to the reaction medium.
# (§4) The radioactive material is then extracted with 3×1 ml of hexane.
# (§5) The organic phase is collected and completely evaporated using a stream of nitrogen gas.
# (§6) The residue is subsequently taken up in 50 μl of acetonitrile and analysed on an HPLC column.
# (§7) The HPLC system consists of a VARIAN 5000 apparatus equipped with an ODS-Ultrasyl reverse-phase column (10 μm, 25×0.4 cm).
# (§8) The unlabeled retinoids are detected by their absorbance measured at 340 nm. 600 μl fractions are also collected using a fraction collector, and their radio-activity is measured with a scintillation counter after adding 4 ml of Pico-fluor.
# [2] = system: human epidermal cell extracts
# Description: (§9) We have also measured the enzymatic oxidation-reduction of retinal in human epidermal cell extracts in vitro (HPLC analysis of the products obtained by incubation of cytosol extracts with ^3 H-labeled RAL and ROL).
# as §1, §2, §3, §4, §5, §6, §7
# (§10) The isocratic elution system consists of a mixture of solvents composed of 71% acetonitrile, 23% of ammonium acetate buffer (50 mM, pH 7) and 6% tetrahydrofuran, with a flow rate of 2.4 ml/min.
# as §8
# [3] = system: extracts of normal human skin and of the psoriasis plaque
# Description: as §9, §1, §2, §3, §4, §5, §6, §7, §10, §8
# seborrheic dermatitis = experiment: application in the case of seborrheic dermatitis; format: in vivo, human; conditions: 0.05% retinal, topical, daily; after treatment for one month
# Description: This test was carried out on 10 subjects displaying the clinical signs of seborrheic dermatitis.
# A topical application containing 0.05% of retinal was used in daily application for one month.
# normal human skin [4] = system: normal human skin
# Description: This test, carried out on 30 healthy volunteers, was intended to evaluate the existance of a biological effect and the tolerance after topical application of retinal.
# Three concentrations, 1.0%, 0.1% and 0.05%, were used, in daily covered applications for at least 15 days and up to 3 months in 10 subjects.
# rosacea = experiment: application in the case of rosacea; format: in vivo, human; conditions: 0.1% retinal, topical, daily
# Description: This test was carried out on 10 subjects displaying the clinical signs of rosacea. A topical application containing 0.1% of retinal was used in daily application for 3 months.
# psoriasis plaques = conditions: for regression of the lesion score: with occlusion
# Description: For this reason, the 1% preparation was used and the effects of a daily application were compared with those of the excipient, in 12 patients.
# The application was "open" in 6 cases, and with occlusion in six 6. 11 cases were able to be evaluated (5 with occlusion, 6 open). The effect was measured by standard methods (erythema 0-3, squama 0-3, infiltration 0-3), comparing the plaques treated with retinal with the symmetrical plaques treated with the excipients. Photographs were taken at each inspection.
# [5] = system: protein extract of psoriasis plaques / cytosol extracts of normal human skin; format: in vitro ADME
# Excerpt: Furthermore, the Applicant has shown that the protein extract of psoriasis plaques was also capable of converting retinol to retinoic acid, but with a lower activity (0.33+0.07 pmol/h/mg) than differentiated keratinocytes.
# These differences in the conversion activity may be attributed to the differences in biological activity of the tissues studied or to their different state of differentiation.
# normal human skin [6] = conditions: topically applied; cited from earlier work
compound,measurement,setting,value
CCO [ethanol],effect on the production of retinoic acid from retinol,[1],not affected
CC1=C(/C=C/C(C)=C/C=C/C(C)=C/C=O)C(C)(C)CCC1 [retinal],oxidation of retinal,[2],51.6 pmol/h/mg
same,oxidation of retinal to retinoic acid,[3],1.35 ± 0.4 pmol/h/mg
same,subjects left with almost no characteristic signs of seborrheic dermatitis,seborrheic dermatitis,80%
same,biological effect on normal skin,"normal human skin [4]; 0.1% and 0.05% preparations, topical, healthy volunteers",better appearance of the skin
same,cases in which an irritation arose,normal human skin [4]; in vivo,10%
same,irritation / dermatitis caused by the retinoids,normal human skin [4]; in vivo,no irritation was noted
same,skin coloration induced,normal human skin [4]; in vivo,yellowish coloration
same,tolerability,normal human skin [4]; in vivo,excellent
same,subjects left with almost no sign of characteristic erythrosis of rosacea,rosacea; after treatment for 3 months,70%
same,cases with a substantial improvement in the rosacea,"rosacea; from the first month, 10 subjects",6 of the 10
same,effect on psoriasis plaques,"psoriasis plaques; 0.1% and 0.05% preparations, initial pilot study",only a modest effect
same,effect on the action of UVA,"psoriasis plaques; 0.1% and 0.05% preparations, psoriasis plaques",potentiating effect
same,results in the open series,"psoriasis plaques; 1% preparation, daily, open application, 6 cases","only one very good result was noted, with one good and four modest results"
same,regression of the lesion score,"psoriasis plaques; 1% preparation, daily, 3 of the 5 cases, from the first week",more than 50%
same,regression of the lesion score,"psoriasis plaques; 1% preparation, daily, one case (good result)",30%
same,regression of the lesion score,"psoriasis plaques; 1% preparation, daily, one case (modest result)",10%
same,local reaction on the psoriasis plaque,psoriasis plaques; in vivo,inflammation specifically localized on the psoriasis plaque
CC1=C(/C=C/C(C)=C/C=C/C(C)=C/CO)C(C)(C)CCC1 [retinol],activity of converting retinol to retinoic acid,[5],0.33+0.07 pmol/h/mg
same,conversion of retinol to retinoic acid,[5],no measurable degree of conversion
CC1=C(/C=C/C(C)=C/C=C/C(C)=C/C(=O)O)C(C)(C)CCC1 [retinoic acid],topical concentration at which dermatitis caused by the retinoids is observed,normal human skin [6],≥ 0.01%
CCN(CC)C(=S)SSC(=S)N(CC)CC [disulfiram],effect on the production of retinoic acid from retinol,[1],not affected
Cc1cn[nH]c1 [4-methylpyrazole],effect on the production of retinoic acid from retinol,[1],not affected
